Reference: PubChem BioAssay AID1996
In brackets after ≈: the same amount, converted by molar mass.

settings: buffer; pH 7.4; 200.0 µM

Compound | solubility kinetic
Cc1ccccc1NC(=O)Nc1cnccn1 | 12.4 µg/mL (≈ 54.3 µM)
CCC(C)C(=O)Nc1nc2ccc(OC)cc2s1 (stereo not given) | > 39.7 µg/mL
O=C(NCCCc1ccccc1)C(=O)c1c[nH]c2ccccc12 | 1.2 µg/mL (≈ 3.92 µM)
O=C(CCc1ccc(S(=O)(=O)N2CCOCC2)cc1)Nc1c(F)cccc1F | > 61.6 µg/mL
C#CC1(OC(=O)c2ccccc2)CC(C)N(C)CC1C.Cl (stereo not given) | > 46.2 µg/mL
CCOc1ccccc1NC(=O)COC(=O)CN1C(=O)NC(C)(C)C1=O | > 54.5 µg/mL
CCOC(=O)c1sc(=NC(=O)C2CC2)n(C)c1C | > 40.2 µg/mL
COCCCNC(=S)N1CCCC(c2nc3cc(C)c(C)cc3[nH]2)C1 (stereo not given) | 53.2 µg/mL (≈ 148 µM)
Cc1ccc(NC(=O)CN2C(=O)c3ccccc3C2=O)c(C)c1 | 4.4 µg/mL (≈ 14.3 µM)
CSc1nc2nc3c(cc2c(=O)n1-c1ccc(C)cc1)COC(C)(C)C3 | 2.3 µg/mL (≈ 6.26 µM)
O=C(Nc1ccc(Cl)cc1)N1CCOCC1 | > 36.1 µg/mL
CC(C)CC(NC(=O)C1CCCCC1)C(=O)NC(C)c1ccccc1 (stereo not given) | 24.4 µg/mL (≈ 70.8 µM)
Cn1c(SCc2ccc([N+](=O)[O-])cc2)nc2c(c1=O)SCC2 | 1.6 µg/mL (≈ 4.77 µM)
Cc1ccc(S(=O)(=O)N2CCN(c3ccccn3)CC2)cc1 | 0.3 µg/mL (≈ 0.945 µM)
C#CCOc1ccccc1C(N)=O | 25.3 µg/mL (≈ 144 µM)
COc1cc(C(CN)CC(=O)O)ccc1O.Cl (stereo not given) | > 39.3 µg/mL
O=C(COC(=O)c1cc[n+]([O-])cc1)Nc1ccc([N+](=O)[O-])cc1 | > 47.6 µg/mL
CN(C)CCN1C(=O)NC(C)(c2ccc([N+](=O)[O-])cc2)C1=O (stereo not given) | > 45.9 µg/mL
CS(=O)(=O)c1ccccc1C(=O)Nc1ccc2sccc2c1 | 33.8 µg/mL (≈ 102 µM)
CN(C)/C=C1/NC(=S)NC1=O | > 25.7 µg/mL
CC(=O)Oc1ccc2c(=O)c(/C=N/c3cc(=O)[nH]c(=S)[nH]3)coc2c1 | 30.6 µg/mL (≈ 85.6 µM)
C/C=C/C(=O)Nc1ccc(N2CCN(c3ccc(C(F)(F)F)cn3)CC2)nc1 | < 0.2 µg/mL
Cc1cccc(NC(=O)CCN2CCN(C)CC2)c1.Cl | > 44.7 µg/mL
O=C(NCCC(=O)N1CCN(c2ccccn2)CC1)c1ccc(Cl)cc1 | > 55.9 µg/mL

Compound | solubility kinetic
O=C(Nc1ccc2c(c1)OCO2)c1cc(-c2ccccc2Cl)on1 | 1.7 µg/mL (≈ 4.96 µM)
Cc1ccc(S(=O)(=O)NCC(C)NC(=O)CN2CCOCC2)cc1 (stereo not given) | > 53.3 µg/mL
CCN(c1ccccc1)c1nc2nonc2nc1NCCO | > 45 µg/mL
Cl.N=C(N)N1CCc2ccccc21 | 28.1 µg/mL
CCN1CCN(C(=S)NC(=O)c2cc(OC)c(OC)c(OC)c2)CC1 | > 55.1 µg/mL
C=CCC1(/C=N/O)CCOC(C)(C)C1 (stereo not given) | > 29.6 µg/mL
Cc1nc(SCC(=O)N2CCCC2=O)nc(C)c1C | > 41.9 µg/mL
O=C(COC(=O)c1cccc(O)c1)NCc1ccc2c(c1)OCO2 | > 49.4 µg/mL
CC(C)NCC(O)c1ccc(NS(C)(=O)=O)cc1.Cl (stereo not given) | > 46.3 µg/mL
CCn1c(CCc2ccccc2)nc2ccccc21.Cl | 28.4 µg/mL
CC(C)(C)c1ccc(C(=O)NCC(=O)N2CCNC(=O)C2)cc1 | > 47.6 µg/mL
CC1CCCCC1NC(=S)Nc1ccc(Cl)cc1Cl (stereo not given) | 1 µg/mL (≈ 3.15 µM)
CCN1C(=O)c2ccc(C(=O)Nc3ncc(C)s3)cc2C1=O | 5.8 µg/mL (≈ 18.4 µM)
CN1CCN(CC(O)COc2ccccc2)CC1 (stereo not given) | 33.4 µg/mL (≈ 133 µM)
COc1ccc(NC(=O)c2cc3ccccc3[nH]2)cc1 | 1.5 µg/mL (≈ 5.63 µM)
C#CCn1cc(Cl)cc(C(=O)Nc2ccccc2)c1=O | 2.1 µg/mL (≈ 7.32 µM)
CS(=O)(=O)N1CCN=C1SCc1cccc(F)c1 | 42.6 µg/mL (≈ 148 µM)
CCCc1ccc(NS(=O)(=O)c2c(C)oc(C)c2C(=O)OC)cc1 | 7.4 µg/mL (≈ 21.1 µM)
COc1cccc(C(=O)Nc2ccc3ccccc3c2)c1 | 1.6 µg/mL (≈ 5.77 µM)
O=C(c1ccc(N2CCOCC2)c([N+](=O)[O-])c1)N1CCCCC1 | > 47.9 µg/mL
O=C(CSc1cc(Cl)ccc1Cl)NC1CC1 | 37.7 µg/mL (≈ 137 µM)
CC(Sc1nccn1C)C(=O)c1ccc(Br)cc1 (stereo not given) | 42.9 µg/mL (≈ 132 µM)
Cc1cccc(-n2c(SCC(N)=O)nnc2-c2ccco2)c1 | > 47.2 µg/mL
Cc1ccc[n+](Cc2ccc([N+](=O)[O-])cc2)c1.[Br-] | > 46.4 µg/mL

Compound | solubility kinetic
CCOc1ncccc1C(=O)OCC(=O)c1ccc(OC)c(OC)c1 | > 51.8 µg/mL
O=C(Cn1cccc1C(=O)c1ccccc1)NCc1cccc(Cl)c1 | < 0.4 µg/mL
Cc1nn(C)c(C)c1/C=C(/C(=O)C(C)C)n1cncn1 | > 41 µg/mL
O=C1CN(S(=O)(=O)c2ccccc2C(F)(F)F)CCN1 | 40.3 µg/mL (≈ 131 µM)
CN(C)c1nc(-c2ccccc2)c2cc(Cl)ccc2n1 | 1 µg/mL (≈ 3.52 µM)
CCCOC(=O)C1=C(C)NC(=O)NC1c1cccc2ccccc12 (stereo not given) | < 0.3 µg/mL
Clc1ccccc1/C=C/c1nc(-c2cccnc2)no1 | 0.8 µg/mL (≈ 2.82 µM)
Cc1ccc(S(=O)(=O)n2cccc2C)cc1 | 5.1 µg/mL (≈ 21.7 µM)
CCOC(=O)CC(NC(=O)c1ccccc1F)c1ccc(C)cc1 (stereo not given) | 34.5 µg/mL (≈ 105 µM)
Cc1cc(C(=O)Nc2ccc([N+](=O)[O-])cn2)cs1 | 6.2 µg/mL (≈ 23.5 µM)
COc1ccc(C/C(N)=N/OC(=O)c2cccs2)cc1 | 7.5 µg/mL (≈ 25.8 µM)
COc1cccc(NC(=O)Nc2ccc3nc(C)c(C)nc3c2)c1 | 0.9 µg/mL (≈ 2.79 µM)
Cc1cccc(NCc2cccc3ccccc23)n1 | 9.8 µg/mL (≈ 39.5 µM)
Cc1ccc(-c2ccc(S(=O)(=O)N3CC(C)OC(C)C3)cc2)cc1 (stereo not given) | < 0.7 µg/mL
Cc1cc(=O)[nH]c(SCC(=O)Nc2nc3ccccc3s2)n1 | > 49.9 µg/mL
Cc1cccc(NC(=S)NCc2ccccc2Cl)c1C | < 0.3 µg/mL
CCCOc1ccc(/C=N/NC(=O)CN2CCCCC2)cc1 | > 45.5 µg/mL
Cn1cnc2cc(NCc3cccs3)ccc21 | 27.1 µg/mL (≈ 111 µM)
O=C(CCC(=O)N1CCN(S(=O)(=O)c2ccccc2)CC1)c1ccc(Br)cc1 | 6.9 µg/mL (≈ 14.8 µM)
CCC(C(=O)OC)n1c(-c2ccccc2)nc2ccccc2c1=O (stereo not given) | 1.5 µg/mL (≈ 4.65 µM)
CCOC(=O)c1ccc(Nc2cc(C)nc(-c3ccccc3)n2)cc1 | < 0.2 µg/mL
CCCCn1c(N)c(N(CC)C(=O)c2cccc(C)c2)c(=O)[nH]c1=O | > 51.7 µg/mL
N#Cc1cnn(-c2ccc(F)cc2)c1N | > 30.3 µg/mL
O=C(OCc1ccc(Cl)c(Cl)c1)c1cccnc1Cl | < 0.7 µg/mL

Compound | solubility kinetic
CCn1c(SC)nc2cc(S(=O)(=O)N3CCCCC3)ccc21 | 43.6 µg/mL (≈ 128 µM)
CCc1cccc(NC(=S)N(CCOC)C(C)c2ccco2)c1 (stereo not given) | 7.9 µg/mL (≈ 23.8 µM)
Cc1ccc(CNC(=O)COC(=O)CN2C(=O)C3CC=CCC3C2=O)cc1 (stereo not given) | > 55.6 µg/mL
CCN(CC)CCSc1nc2ccc(OC)cc2[nH]1.Cl | > 52.8 µg/mL
COc1cc(CNC(=O)c2cc3ccccc3oc2=O)cc(OC)c1OC | 4.6 µg/mL (≈ 12.5 µM)
CC(=O)C1=C(c2ccccc2)NC(=O)NC1c1cccs1 (stereo not given) | 28.2 µg/mL (≈ 94.5 µM)
COc1ccc([N+](=O)[O-])cc1NCC(=O)c1ccc(C)cc1 | 14.2 µg/mL (≈ 47.3 µM)
Cn1c(NC2CCCCC2)c(N=O)c(=O)n(C)c1=O | > 39.9 µg/mL
CCOc1ccccc1NS(=O)(=O)c1ccc2[nH]c(=O)[nH]c2c1 | > 50 µg/mL
CCC1(c2ccccc2)NC(=O)N(CC(=O)NC2CCCCCC2)C1=O (stereo not given) | 37.8 µg/mL (≈ 106 µM)
COc1ccc(NC(=O)c2ccc3ncsc3c2)cc1 | 1.3 µg/mL (≈ 4.57 µM)
Cc1ccc(S(=O)(=O)/N=C2/NC(=O)/C(=C\c3ccccc3)S2)cc1 | > 53.8 µg/mL
Cc1nc2cc(NC(=O)c3ccco3)ccc2n1C | 38.2 µg/mL (≈ 150 µM)
CC(=O)CSc1nc(-c2ccccc2)c(-c2ccccc2)o1 | 3.1 µg/mL (≈ 10 µM)
CC(C)Cc1ccc(S(=O)(=O)Nc2cccnc2)cc1 | 14.3 µg/mL (≈ 49.2 µM)
COc1ccccc1C(=O)CSc1nccn1C | 35.9 µg/mL (≈ 137 µM)
COc1ccc(S(=O)(=O)N2CCSCC2)cc1C(N)=O | 25 µg/mL (≈ 79 µM)
Cc1cc(C)c(OCCNCc2ccccc2)c(C)c1.O=C(O)C(=O)O | 42.5 µg/mL
O=C(CN1C(=O)NC2(CCCC2)C1=O)NC(c1ccccc1)c1ccccc1 | 14.5 µg/mL (≈ 38.4 µM)
Cc1ccc(S(=O)(=O)N2CCOCC2)cc1C(=O)OCC(=O)NCCc1ccc(F)cc1 | 60.2 µg/mL (≈ 130 µM)
O=C1CCCC(=O)N1c1ccc(NCCOCCO)c([N+](=O)[O-])c1 | > 50.6 µg/mL
Nc1nnc(SCc2ccccc2F)s1 | > 36.2 µg/mL
Fc1ccc(-c2nc(-c3cnccn3)no2)c(Cl)c1 | 3.5 µg/mL (≈ 12.7 µM)
CC(=O)Nc1ccc(C(=O)N2CCc3cc4c(cc3C2C)OCCCO4)cc1 (stereo not given) | > 57.1 µg/mL

Compound | solubility kinetic
CCOc1ncccc1C(=O)N1CCN(C(=O)c2ccccc2)CC1 | > 50.9 µg/mL
CNc1nnc(-c2ccc(OC)cc2)s1 | > 33.2 µg/mL
CCOc1ncccc1C(=O)OCC(=O)NCc1ccc2c(c1)OCO2 | > 53.8 µg/mL
COc1ccc(CC(=O)NCCc2cnc[nH]2)cc1 | > 38.9 µg/mL
CCCCc1c(O)nc(SCC(=O)N2CCCCC2)[nH]c1=O | > 48.8 µg/mL
CN(C(=O)COC(=O)c1cccc(F)c1)c1ccccc1 | 32 µg/mL (≈ 111 µM)
Cc1noc(C)c1C(=O)Nc1cccc2ncccc12 | > 40.1 µg/mL
O=C(NC12CC3CC(CC(C3)C1)C2)c1cncc(Br)c1 | 8.5 µg/mL (≈ 25.4 µM)
COc1ccccc1CNC(=O)c1oc2ccccc2c1C | 9.8 µg/mL (≈ 33.2 µM)
CCc1ccc(N2C(=O)C(Cl)=C(N3CCCCCC3)C2=O)cc1 | 1.7 µg/mL (≈ 5.11 µM)
O=C(NC1CCCCC1)c1ccc2c(c1)OCCO2 | 34.8 µg/mL (≈ 133 µM)
Cc1cc(C)c2[nH]c(C)c(CN3CCCCCC3)c(=O)c2c1 | > 44.8 µg/mL
COc1ccc(CC(=O)Nc2ccc(OC)nc2)cc1 | > 40.8 µg/mL
CN(C)c1ccc(CNCc2cccnc2)cc1 | 33.3 µg/mL (≈ 138 µM)
COC(=O)c1cn(C(=O)c2ccc(OC)c(OC)c2)c2ccccc12 | 1.2 µg/mL (≈ 3.54 µM)
Cc1ccc(C(C)C)c(OCCCn2ccnc2C)c1.O=C(O)C(=O)O | 51.2 µg/mL
COc1cccc2c(Nc3ccccc3C)cc(C)nc12.Cl | 40.1 µg/mL
COC(=O)c1c(NC(C)=O)sc(C)c1C | 31 µg/mL (≈ 136 µM)
O=C(Cc1ccc(F)cc1)NC(Cc1c[nH]c2ccccc12)C(=O)O (stereo not given) | 46.6 µg/mL (≈ 137 µM)
O=S(=O)(Nc1ccncc1)c1ccc(Cl)c(Cl)c1 | 3.7 µg/mL (≈ 12.2 µM)
COc1cc(NC(=O)c2cccc(S(=O)(=O)N3CCCCC3)c2)cc(OC)c1OC | 7.2 µg/mL (≈ 16.6 µM)
O=C(CCCOc1ccc(Cl)cc1Cl)Nc1ccccc1C(=O)O | > 55.2 µg/mL
CS(=O)(=O)/C(C#N)=C/c1cccn1S(=O)(=O)c1ccccc1 | 6.8 µg/mL (≈ 20.2 µM)
COc1ccc(C(=O)N(c2ccc(C)cc2)C2C=CS(=O)(=O)C2)cc1OC (stereo not given) | 55.3 µg/mL (≈ 143 µM)
